Patent publication US20240287138A1, “CYCLIC PEPTIDES FOR INHIBITING TNF RECEPTOR 1 ACTIVITY” (Merck Sharp & Dohme LLC, priority 2023, published 2024)
Like-named read-outs stand apart in the source and are kept apart here. Numbered stars: 1 amine (or outer) side, 2 acyl side, 3 side chain; on linkers, the order of the positions; unused ones are H or OH. Square brackets hold non-standard residues; d marks the D form. Peptide text beside a SMILES is read from it. * marks the point of attachment. Ala(2-carboxypyrimidin-5-yl) = N[C@@H](Cc1cnc(C(=O)O)nc1)C(=O)O; Trp(βS-Me,7-OMe) = COc1cccc2c([C@H](C)[C@H](N)C(=O)O)c[nH]c12; X44 = NC(=O)c1ccc([C@@H](O)[C@H](N[*:1])C(=O)[*:2])cc1; X28 = NC(=O)c1ccc([C@H](O)[C@H](N[*:1])C(=O)[*:2])cc1; Phe(4-SO2NH2) = N[C@@H](Cc1ccc(S(N)(=O)=O)cc1)C(=O)O; Trp(7-CN) = N#Cc1cccc2c(C[C@H](N)C(=O)O)c[nH]c12; Trp(7-Cl) = N[C@@H](Cc1c[nH]c2c(Cl)cccc12)C(=O)O; Ala(pyrimidin-5-yl) = N[C@@H](Cc1cncnc1)C(=O)O; Phe(4-CONH2) = NC(=O)c1ccc(C[C@H](N)C(=O)O)cc1; Phe(4-COOH) = N[C@@H](Cc1ccc(C(=O)O)cc1)C(=O)O; X64 = O=C([C@H](Cc1n[nH]c2ncccc12)N[*:1])[*:2]; Trp(7-aza) = N[C@@H](Cc1c[nH]c2ncccc12)C(=O)O; X60 = NC(=O)[C@H](O)[C@H](N[*:1])C(=O)[*:2]; Pip(5R-OH) = O=C(O)[C@@H]1CC[C@@H](O)CN1; X1 = O=C([C@@H]1CC[C@H](N[*:1])C1)[*:2]; 4Pal = N[C@@H](Cc1ccncc1)C(=O)O; dHyp = O=C(O)[C@H]1C[C@H](O)CN1; αMeS = C[C@](N)(CO)C(=O)O; Carboxymethyl = O=C(O)C*; Nle = CCCC[C@H](N)C(=O)O; Sar = CNCC(=O)O

Tests used:
[1] = biological target: T1, TNFα-induced NF-κB signal transduction pathway (TNFR1 signaling) in THP-1 cells (Homo sapiens, UniProt P19438); assay: THP-1 Lucia NF-κB reporter cell assay, inhibition of TNFα-induced NF-κB signaling; type: cell-based; settings: THP-1 NF-κB Lucia reporter cells, 10 ng/mL TNFα, 16-18 h, secreted luciferase, read-out: THP-1 IC50
T1 sequence (P19438 30-455): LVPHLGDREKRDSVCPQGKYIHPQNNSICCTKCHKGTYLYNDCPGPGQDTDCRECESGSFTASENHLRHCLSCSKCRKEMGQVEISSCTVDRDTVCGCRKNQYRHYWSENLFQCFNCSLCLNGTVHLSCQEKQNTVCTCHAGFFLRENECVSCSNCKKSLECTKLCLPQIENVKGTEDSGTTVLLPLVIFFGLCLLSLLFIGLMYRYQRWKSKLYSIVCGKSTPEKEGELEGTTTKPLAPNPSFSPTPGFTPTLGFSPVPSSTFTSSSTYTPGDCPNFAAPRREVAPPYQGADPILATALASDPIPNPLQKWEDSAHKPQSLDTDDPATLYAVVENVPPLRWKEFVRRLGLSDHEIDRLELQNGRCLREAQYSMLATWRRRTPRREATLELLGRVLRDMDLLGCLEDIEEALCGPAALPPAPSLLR
Outline: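 Read-out: secreted Lucia luciferase luminescence (QUANTI-Luc) from supernatant after 16-18 h, 37 °C, 10 ng/mL rhTNFα. Peptide pretreatment 1 h at 37 °C; 20,000 cells/well, selection antibiotics omitted. IC50 via 4-parameter logistic model against min/max controls.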

[2] = biological target: T2, human soluble TNFR1 (sTNFR1) (Homo sapiens, UniProt P19438); assay: Human sTNFR1-peptide displacement assay (LanthaScreen Eu TR-FRET binding assay)
T2 construct: made in house; host or cells: Sf21 (baculovirus)
T2 sequence (P19438 with tags, fused parts or gaps): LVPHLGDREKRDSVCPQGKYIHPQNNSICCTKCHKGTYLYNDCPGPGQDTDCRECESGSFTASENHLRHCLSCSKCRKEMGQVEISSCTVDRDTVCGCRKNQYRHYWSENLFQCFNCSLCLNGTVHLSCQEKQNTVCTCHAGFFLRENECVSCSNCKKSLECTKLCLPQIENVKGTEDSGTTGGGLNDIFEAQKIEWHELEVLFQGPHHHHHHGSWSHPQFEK
Outline: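 Readout is the 665/615 nm TR-FRET ratio (Eu anti-His donor, streptavidin-Alexa647 acceptor), normalized to DMSO and saturating displacer, fit by Morrison-based five-parameter logistic for Kd^app. His-tagged sTNFR1 (1-211) prebound to 100 nM biotinylated peptide SEQ ID NO.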

## CCCC[C@@H]1NC(=O)[C@@H]2CC[C@@H](C2)NC(=O)[C@H]([C@@H](C)c2c[nH]c3c(OC)cccc23)NC(=O)CN(C)C(=O)[C@H](Cc2ccc(C(=O)O)cc2)NC(=O)[C@H](Cc2ccc(C(N)=O)cc2)NC(=O)[C@](C)(CO)NC(=O)[C@H](Cc2c[nH]c3c(C#N)cccc23)NC(=O)[C@H](Cc2ccc(C(=O)O)cc2)NC(=O)[C@H](CC(N)=O)NC(=O)[C@H]2C[C@H](OCC(=O)O)CN2C(=O)[C@H](Cc2c[nH]c3ncccc23)NC(=O)[C@@H]2CC[C@@H](O)CN2C(=O)[C@H](Cc2ccncc2)NC1=O [SEQ ID NO. 77] (cyclo([4Pal][Pip(5R-OH)][Trp(7-aza)][dHyp](Carboxymethyl)N[Phe(4-COOH)][Trp(7-CN)][αMeS][Phe(4-CONH2)][Phe(4-COOH)][Sar][Trp(βS-Me,7-OMe)][X1][Nle]))
[1]; listed as 77
  IC50: 0.6 nM
[2]; displacement of biotinylated peptide SEQ ID NO. 1 from sTNFR1, 20 point titration, 5-parameter fit based on Morrison equation (tight binding), read-out: TR-FRET Kd^app
  Kd: 0.06 nM

## CCCC[C@@H]1NC(=O)[C@@H]2CC[C@@H](C2)NC(=O)[C@H]([C@@H](C)c2c[nH]c3c(OC)cccc23)NC(=O)CN(C)C(=O)[C@H](Cc2ccc(C(=O)O)cc2)NC(=O)[C@H](Cc2ccc(C(N)=O)cc2)NC(=O)[C@](C)(CO)NC(=O)[C@H](Cc2c[nH]c3c(C#N)cccc23)NC(=O)[C@H](Cc2ccncc2)NC(=O)[C@H]([C@@H](O)C(N)=O)NC(=O)[C@H]2C[C@H](O)CN2C(=O)[C@H](Cc2c[nH]c3ccccc23)NC(=O)[C@@H]2CC[C@@H](O)CN2C(=O)[C@H](Cc2ccncc2)NC1=O [SEQ ID NO. 78] (cyclo([4Pal][Trp(7-CN)][αMeS][Phe(4-CONH2)][Phe(4-COOH)][Sar][Trp(βS-Me,7-OMe)][X1][Nle][4Pal][Pip(5R-OH)]W[dHyp][X60]))
[1]
  IC50: 0.7 nM
[2]
  Kd: 0.05 nM

## CCCC[C@@H]1NC(=O)[C@@H]2CC[C@@H](C2)NC(=O)[C@H]([C@@H](C)c2c[nH]c3c(OC)cccc23)NC(=O)CN(C)C(=O)[C@H](Cc2ccc(C(=O)O)cc2)NC(=O)[C@H](Cc2ccc(C(N)=O)cc2)NC(=O)[C@](C)(CO)NC(=O)[C@H](Cc2c[nH]c3c(Cl)cccc23)NC(=O)[C@H](Cc2cnc(C(=O)O)nc2)NC(=O)[C@H](CC(N)=O)NC(=O)[C@H]2C[C@H](O)CN2C(=O)[C@H](Cc2c[nH]c3ccccc23)NC(=O)[C@@H]2CC[C@@H](O)CN2C(=O)[C@H](Cc2ccncc2)NC1=O [SEQ ID NO. 88] (cyclo([4Pal][Pip(5R-OH)]W[dHyp]N[Ala(2-carboxypyrimidin-5-yl)][Trp(7-Cl)][αMeS][Phe(4-CONH2)][Phe(4-COOH)][Sar][Trp(βS-Me,7-OMe)][X1][Nle]))
[1]
  IC50: 1.9 nM
[2]
  Kd: 0.2 nM

## CCCC[C@@H]1NC(=O)[C@@H]2CC[C@@H](C2)NC(=O)[C@H]([C@@H](C)c2c[nH]c3c(OC)cccc23)NC(=O)CN(C)C(=O)[C@H](Cc2ccc(OCC(=O)O)cc2)NC(=O)[C@H](Cc2ccc(S(N)(=O)=O)cc2)NC(=O)[C@](C)(CO)NC(=O)[C@H](Cc2c[nH]c3c(C#N)cccc23)NC(=O)[C@H](Cc2ccc(OCC(=O)O)cc2)NC(=O)[C@H](CC(N)=O)NC(=O)[C@H]2C[C@H](OCC(=O)O)CN2C(=O)[C@H](Cc2n[nH]c3ncccc23)NC(=O)[C@@H]2CC[C@@H](O)CN2C(=O)[C@H](Cc2cncnc2)NC1=O [SEQ ID NO. 89] (cyclo([X1][Nle][Ala(pyrimidin-5-yl)][Pip(5R-OH)][X64][dHyp](Carboxymethyl)NY(Carboxymethyl)[Trp(7-CN)][αMeS][Phe(4-SO2NH2)]Y(Carboxymethyl)[Sar][Trp(βS-Me,7-OMe)]))
[1]
  IC50: 1.2 nM
[2]
  Kd: 0.18 nM

## CCCC[C@@H]1NC(=O)[C@@H]2CC[C@@H](C2)NC(=O)[C@H]([C@@H](C)c2c[nH]c3c(OC)cccc23)NC(=O)CN(C)C(=O)[C@H]([C@H](O)c2ccc(C(N)=O)cc2)NC(=O)[C@H]([C@@H](O)c2ccc(C(N)=O)cc2)NC(=O)[C@](C)(CO)NC(=O)[C@H](Cc2c[nH]c3c(C#N)cccc23)NC(=O)[C@H](Cc2ccc(C(=O)O)cc2)NC(=O)[C@H](CC(N)=O)NC(=O)[C@H]2C[C@H](O)CN2C(=O)[C@H](Cc2c[nH]c3ncccc23)NC(=O)[C@@H]2CC[C@@H](O)CN2C(=O)[C@H](Cc2ccncc2)NC1=O [SEQ ID NO. 90] (cyclo([4Pal][Pip(5R-OH)][Trp(7-aza)][dHyp]N[Phe(4-COOH)][Trp(7-CN)][αMeS][X28][X44][Sar][Trp(βS-Me,7-OMe)][X1][Nle]))
[1]
  IC50: 1.2 nM
[2]
  Kd: 0.12 nM
